The source of these data is US20240382471A1, “GLUCAGON-LIKE PEPTIDE-1 RECEPTOR MODULATORS AND USES THEREOF” (HEPAGENE THERAPEUTICS (HK) LIMITED, priority 2021, published 2024).

GLP1R, sequence (P43220 24-463): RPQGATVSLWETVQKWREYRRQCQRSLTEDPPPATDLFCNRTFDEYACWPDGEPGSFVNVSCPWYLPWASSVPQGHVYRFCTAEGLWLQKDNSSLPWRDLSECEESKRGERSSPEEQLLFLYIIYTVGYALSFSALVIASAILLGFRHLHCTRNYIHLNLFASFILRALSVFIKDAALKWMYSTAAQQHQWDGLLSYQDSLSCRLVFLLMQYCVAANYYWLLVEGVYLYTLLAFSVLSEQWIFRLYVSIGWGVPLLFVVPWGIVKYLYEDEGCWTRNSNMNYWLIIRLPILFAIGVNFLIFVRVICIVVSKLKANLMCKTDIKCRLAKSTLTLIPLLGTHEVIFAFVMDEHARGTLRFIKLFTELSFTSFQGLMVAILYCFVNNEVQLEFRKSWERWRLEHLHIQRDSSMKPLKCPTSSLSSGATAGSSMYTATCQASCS

In this test the target is GLP1R (Homo sapiens, UniProt P43220). Kind of test: GLP1R/CRE-Luc luciferase reporter gene assay (agonist activity). The class given is cell-based. Details: host or cells: HKE293 (so in the source). Particulars: HKE293-Human GLP1R/CRE-luc cells, 5 h at 37° C., read-out: EC50 (nM) Assay 2. The procedure:
GLP1R-mediated agonist activity was determined with a cell-based functional assay utilizing a britelite plus luciferase reporter gene assay system. The stable cell line overexpress GLP1R and target response element. The stimulation with GLP1R agonist results in the upregulation of intracellular cAMP, which regulate the activities of cAMP-response element binding protein (CREB) and CREB-Luc. Reagents and equipment used in the assay are listed below, followed by the protocol.
• 1) Cell Line: HKE293-Human GLP1R/CRE-luc • 2) Complete Medium: DMEM+10% FBS+1×Penicillin-Streptomycin+400 μg/mL G418
• a) Seed HKE293-Human GLP1R/CRE-luc cells at 20,000 cells/well into 384 well assay plate (6007680-50, PE) using complete medium and incubate overnight. • b) Prepare 6×compound working solution with Medium. • c) Add 5 μL 6×compound working solution into cell plate, incubate 5 h at 37° C. • d) Add 20 μl britelite plus Luciferase Assay Reagent into each well of 384-well assay plate. • e) Record the luminescence value on Envision plate reader.
• 3.1% Activity is calculated as follow:
% Activity=(Signalcmpd−SignalAve_VC)/(SignalAve_PC−SignalAve_VC)×100. • 3.2 Calculate EC50 and Plot effect-dose curve of cmpds:
Y=Bottom+(Top−Bottom)/(1+10^((Log EC50−X)*HillSlope)) • X: log of agonist concentration; Y: % Activity.
Background: In a reporter assay the amount or activity of a reporter protein is the signal.
By EC50 is commonly meant the concentration at which the effect is half-maximal. Turning to `COc1cc(C#N)ccc1COc1nc(C23CCN(Cc4nc5c(OC)cc(C(=O)O)cc5n4C[C@@H]4CCO4)CC2C3)ccc1OC` (stereo partly drawn) [Compound 1-30, 2-((6-(6-((4-cyano-2-methoxybenzyl)oxy)-5-methoxypyridin-2-yl)-3-azabicyclo[4.1.0]heptan-3-yl)methyl)-4-methoxy-1-(((S)-oxetan-2-yl)methyl)-1H-benzo[d]imidazole-6-carboxylic acid], the concentration giving a half-maximal response (EC50) came out at 28.1 nM.

Regarding `C#Cc1ccc(COc2ccnc(C34CCN(Cc5nc6c(OC)cc(C(=O)O)cc6n5C[C@@H]5CCO5)CC3C4)n2)c(OC)c1` (stereo partly drawn) [Compound 1-49, 2-((6-(4-((4-ethynyl-2-methoxybenzyl)oxy)pyrimidin-2-yl)-3-azabicyclo[4.1.0]heptan-3-yl)methyl)-4-methoxy-1-(((S)-oxetan-2-yl)methyl)-1H-benzo[d]imidazole-6-carboxylic acid], the concentration giving a half-maximal response (EC50) came out at 10.2 nM.

For `COc1cc(C#N)ccc1COc1cccc(C23CCN(Cc4nc5c(F)cc(C(=O)NS(C)(=O)=O)cc5n4C[C@@H]4CCO4)CC2C3)n1` (stereo partly drawn) [Compound 7-1, 2-((6-(6-((4-cyano-2-methoxybenzyl)oxy)pyridin-2-yl)-3-azabicyclo[4.1.0]heptan-3-yl)methyl)-4-fluoro-N-(methylsulfonyl)-1-(((S)-oxetan-2-yl)methyl)-1H-benzo[d]imidazole-6-carboxamide], the EC50 amounted to 266 nM.

With `COc1cc(C#N)ccc1COc1cccc(C23CCN(Cc4nc5c(OC)cc(C(=O)O)cc5n4C[C@@H]4CCO4)CC2C3)n1` (stereo partly drawn) [Compound 1-24, 2-((6-(6-((4-cyano-2-methoxybenzyl)oxy)pyridin-2-yl)-3-azabicyclo[4.1.0]heptan-3-yl)methyl)-4-methoxy-1-(((S)-oxetan-2-yl)methyl)-1H-benzo[d]imidazole-6-carboxylic acid], the EC50 stood at 0.37 nM.

As to `COc1cc(C#N)ccc1COc1ccnc(C23CCN(Cc4nc5c(OC(C)C)cc(C(=O)O)cc5n4C[C@@H]4CCO4)CC2C3)n1` (stereo partly drawn) [Compound 1-42, 2-((6-(4-((4-cyano-2-methoxybenzyl)oxy)pyrimidin-2-yl)-3-azabicyclo[4.1.0]heptan-3-yl)methyl)-4-isopropoxy-1-(((S)-oxetan-2-yl)methyl)-1H-benzo[d]imidazole-6-carboxylic acid], the EC50 worked out at 6.5 nM.

For `COc1cc(C#N)ccc1COc1cccc(C23CCN(Cc4nc5ccc(C(=O)O)cc5n4C[C@@H]4CCO4)CC2C3)n1` (single isomer, unassigned) [Compound 1-6-B], the concentration giving a half-maximal response (EC50) worked out at 4.98 nM.

In the case of `COc1cc(C#N)ccc1COc1nc(C23CCN(Cc4nc5ccc(C(=O)O)cc5n4C[C@@H]4CCO4)CC2C3)ncc1F` (stereo partly drawn) [Compound 1-31, 2-((6-(4-((4-cyano-2-methoxybenzyl)oxy)-5-fluoropyrimidin-2-yl)-3-azabicyclo[4.1.0]heptan-3-yl)methyl)-1-(((S)-oxetan-2-yl)methyl)-1H-benzo[d]imidazole-6-carboxylic acid], the EC50 worked out at 132 nM.

Turning to `COc1cc(C#N)ccc1COc1cccc(C23CCN(Cc4nc5c(C#N)cc(C(=O)O)cc5n4C[C@@H]4CCO4)CC2C3)n1` (stereo partly drawn) [Compound 1-17, 4-cyano-2-((6-(6-((4-cyano-2-methoxybenzyl)oxy)pyridin-2-yl)-3-azabicyclo[4.1.0]heptan-3-yl)methyl)-1-(((S)-oxetan-2-yl)methyl)-1H-benzo[d]imidazole-6-carboxylic acid], the EC50 was determined as 6.66 nM.

As to `COc1cc(C#N)ccc1COc1ccnc(C23CCN(Cc4nc5c(OC)cc(C(=O)O)cc5n4C[C@@H]4CCO4)CC2C3)n1` (stereo partly drawn) [Compound 1-38, 2-((6-(4-((4-cyano-2-methoxybenzyl)oxy)pyrimidin-2-yl)-3-azabicyclo[4.1.0]heptan-3-yl)methyl)-4-methoxy-1-(((S)-oxetan-2-yl)methyl)-1H-benzo[d]imidazole-6-carboxylic acid], the EC50 is 0.79 nM.

Regarding `COc1cc(C#N)ccc1COc1cccc(C23CCN(Cc4nc5c(C6CC6)cc(C(=O)O)cc5n4C[C@@H]4CCO4)CC2C3)n1` (stereo partly drawn) [Compound 1-19, 2-((6-(6-((4-cyano-2-methoxybenzyl)oxy)pyridin-2-yl)-3-azabicyclo[4.1.0]heptan-3-yl)methyl)-4-cyclopropyl-1-(((S)-oxetan-2-yl)methyl)-1H-benzo[d]imidazole-6-carboxylic acid], the EC50 amounted to 19 nM.

Turning to `COc1cc(C#N)ccc1COc1nc(C23CCN(Cc4nc5c(OC)cc(C(=O)O)cc5n4C[C@@H]4CCO4)CC2C3)ncc1C` (stereo partly drawn) [Compound 1-33, 2-((6-(4-((4-cyano-2-methoxybenzyl)oxy)-5-methylpyrimidin-2-yl)-3-azabicyclo[4.1.0]heptan-3-yl)methyl)-4-methoxy-1-(((S)-oxetan-2-yl)methyl)-1H-benzo[d]imidazole-6-carboxylic acid], the EC50 worked out at 105 nM.

In the case of `COc1cc(C#N)ccc1COc1nccc(C23CCN(Cc4nc5ccc(C(=O)O)cc5n4C[C@@H]4CCO4)CC2C3)n1` (stereo partly drawn) [Compound 1-27, 2-((6-(2-((4-cyano-2-methoxybenzyl)oxy)pyrimidin-4-yl)-3-azabicyclo[4.1.0]heptan-3-yl)methyl)-1-(((S)-oxetan-2-yl)methyl)-1H-benzo[d]imidazole-6-carboxylic acid], the EC50 is 11.7 nM.

In the case of `COc1cc(C#N)ccc1COc1nc(C23CCN(Cc4nc5c(OC)cc(C(=O)O)cc5n4C[C@@H]4CCO4)CC2C3)ncc1F` (stereo partly drawn) [Compound 1-43, 2-((6-(4-((4-cyano-2-methoxybenzyl)oxy)-5-fluoropyrimidin-2-yl)-3-azabicyclo[4.1.0]heptan-3-yl)methyl)-4-methoxy-1-(((S)-oxetan-2-yl)methyl)-1H-benzo[d]imidazole-6-carboxylic acid], the EC50 stood at 0.49 nM.

For `CCOc1cc(C(=O)O)cc2c1nc(CN1CCC3(c4nccc(OCc5ccc(C#N)cc5OC)n4)CC3C1)n2C[C@@H]1CCO1` (stereo partly drawn) [Compound 1-41, 2-((6-(4-((4-cyano-2-methoxybenzyl)oxy)pyrimidin-2-yl)-3-azabicyclo[4.1.0]heptan-3-yl)methyl)-4-ethoxy-1-(((S)-oxetan-2-yl)methyl)-1H-benzo[d]imidazole-6-carboxylic acid], the EC50 was 0.34 nM.

With `COc1cc(C#N)ccc1COc1cccc(C23CCN(Cc4nc5c(Cl)cc(C(=O)O)cc5n4C[C@@H]4CCO4)CC2C3)n1` (stereo partly drawn) [Compound 1-25, 4-chloro-2-((6-(6-((4-cyano-2-methoxybenzyl)oxy)pyridin-2-yl)-3-azabicyclo[4.1.0]heptan-3-yl)methyl)-1-(((S)-oxetan-2-yl)methyl)-1H-benzo[d]imidazole-6-carboxylic acid], the EC50 is 0.95 nM.

Take `COc1cc(C(=O)O)cc2c1nc(CN1CCC3(c4nccc(OCc5ccc(C#N)cc5OC(C)C)n4)CC3C1)n2C[C@@H]1CCO1` (stereo partly drawn) [Compound 1-40, 2-((6-(4-((4-cyano-2-isopropoxybenzyl)oxy)pyrimidin-2-yl)-3-azabicyclo[4.1.0]heptan-3-yl)methyl)-4-methoxy-1-(((S)-oxetan-2-yl)methyl)-1H-benzo[d]imidazole-6-carboxylic acid]: the EC50 worked out at 22.1 nM.

For the molecule `COc1cc(C(F)(F)F)ccc1COc1cccc(C23CCN(Cc4nc5ccc(C(=O)O)cc5n4C[C@@H]4CCO4)CC2C3)n1` (stereo partly drawn) [Compound 1-14, 2-((6-(6-((2-methoxy-4-(trifluoromethyl)benzyl)oxy)pyridin-2-yl)-3-azabicyclo[4.1.0]heptan-3-yl)methyl)-1-(((S)-oxetan-2-yl)methyl)-1H-benzo[d]imidazole-6-carboxylic acid], the EC50 came to 17.4 nM.

As to `COc1cc(C#N)ccc1COc1ccnc(C23CCN(Cc4nc5ccc(C(=O)O)cc5n4C[C@@H]4CCO4)CC2C3)n1` (single isomer, unassigned) [Compound 1-26-B], the EC50 worked out at 7.54 nM.

As to `CCn1cncc1Cn1c(CN2CCC3(c4cccc(OCc5ccc(C#N)cc5OC)n4)CC3C2)nc2ccc(C(=O)O)cc21` (stereo not shown) [Compound 1-44, 2-((6-(6-((4-cyano-2-methoxybenzyl)oxy)pyridin-2-yl)-3-azabicyclo[4.1.0]heptan-3-yl)methyl)-1-((1-ethyl-1H-imidazol-5-yl)methyl)-1H-benzo[d]imidazole-6-carboxylic acid], the EC50 was determined as 0.3 nM.

`COc1cc(Cl)ccc1COc1cccc(C23CCN(Cc4nc5ccc(C(=O)O)cc5n4C[C@@H]4CCO4)CC2C3)n1` (stereo partly drawn) [Compound 1-12, 2-((6-(6-((4-chloro-2-methoxybenzyl)oxy)pyridin-2-yl)-3-azabicyclo[4.1.0]heptan-3-yl)methyl)-1-(((S)-oxetan-2-yl)methyl)-1H-benzo[d]imidazole-6-carboxylic acid]: the EC50 came out at 26.4 nM.

Take `COc1cc(Br)ccc1COc1cccc(C23CCN(Cc4nc5ccc(C(=O)O)cc5n4C[C@@H]4CCO4)CC2C3)n1` (stereo partly drawn) [Compound 1-16, 2-((6-(6-((4-bromo-2-methoxybenzyl)oxy)pyridin-2-yl)-3-azabicyclo[4.1.0]heptan-3-yl)methyl)-1-(((S)-oxetan-2-yl)methyl)-1H-benzo[d]imidazole-6-carboxylic acid]: the EC50 stood at 24.8 nM.

`COc1cc(C#N)ccc1COc1cccc(C23CCN(Cc4nc5c(C)cc(C(=O)O)cc5n4C[C@@H]4CCO4)CC2C3)n1` (stereo partly drawn) [Compound 1-18, 2-((6-(6-((4-cyano-2-methoxybenzyl)oxy)pyridin-2-yl)-3-azabicyclo[4.1.0]heptan-3-yl)methyl)-4-methyl-1-(((S)-oxetan-2-yl)methyl)-1H-benzo[d]imidazole-6-carboxylic acid]: the EC50 was 13.4 nM.
